Test results published in patent publication US20240166593A1, “LIPIDS SUITABLE FOR NUCLEIC ACID DELIVERY” (RAMOT AT TEL-AVIV UNIVERSITY LTD., priority 2021, published 2024).
Where “and” joins values, the source holds several entries; their conditions need not be identical. Equal values may be shown once.

What was measured:
[1] = Physico-chemical characterization of LNPs made of different ionizable lipids (DLS, zeta potential); type: physicochemical
Protocol: Various LNPs comprising different ionizable lipid were prepared by using microfluidic micro mixture (Precision NanoSystems, Vancouver, BC) device. Briefly, one volume of lipid mixtures (ionizable lipid, DSPC, Cholesterol and DMG-PEG at 30:18:49.5:2.5 mole ratios) in ethanol and three volumes of mRNA containing acetate buffer solutions were mixed through the micromixer at a combined flow rate of 12 mL/min. The resultant mixture was dialyzed against PBS (pH 7.4) for 16 hours to remove ethanol.
The prepared LNPs comprising different ionizable lipids were characterized using transmission electron microscopy (TEM) analysis (FIGS. 10A-10G), dynamic light scattering (DLS) and zeta potential measurements. Table 1 represents the measured hydrodynamic diameter (Z-ave; d.nm), polydispersity index (PDI) and zeta potential (mV) of various LNPs. The resultant LNPs were spherical and uniformly distributed with a hydrodynamic diameter size of ˜50-260 nm, depending on the ionizable lipid used. Additionally, LNP surface potentials were negative.
In addition, DSL1-3 LNPs comprising different amounts of PEG (1.5 mol % or 2.5 mol %) were compared for bio-distribution. Mice treated and sacrificed; organs prepared for luciferase expression analysis as detailed above. […] Next, as shown in FIGS. 11M-11P, mRNA-LNPs composed of DSL1-4, 1-5, 2-2 or 2-50 lipids were compared to DSPC or DOPE as co-lipids. […] Tables 2-5 detail the physio-chemical properties of LNPs made of either DOPE or DSPC (the measured hydrodynamic diameter (Z-ave; d.nm), polydispersity index (PDI)).

luciferase expression [2] = assay: In-vivo delivery of mRNA encoding luciferase using LNPs (IVIS of organs); set-up: species or system Mice; conditions: for bio-distribution of LNPs (luciferase expression by IVIS): mLUC-LNPs IV 0.5 mg/kg, 7 hr post administration, lung, liver, spleen, kidney; for luciferase activity of LNPs with DOPE as co-lipid compared to DSPC containing LNPs: mRNA-LNPs in mice; for bio-distribution on increasing ionizable lipid mole ratio (40% vs 30%): mRNA-LNPs IV
[3] = system: CD11c positive splenic dendritic cells; assay: mCRE-LNPs in Ai9 mice, FACS for tdTomato expression; type: in vivo; conditions: mCRE-LNPs IV 0.5 mg/kg, 72 hr post administration
Protocol: (§1) Ai9 mice that express robust tdTomato fluorescence following cre-mediated recombination were injected intravenously with the various mCRE-LNPs at 0.5 mg/kg dose. Mice were sacrificed 72 hr post administration and peritoneal macrophages and spleenocytes were isolated and analyzed by FACS for tdTomato expression (FIGS. 13 and 14).

peritoneal macrophages = assay: as above; type: in vivo; conditions: mCRE-LNPs IV 0.5 mg/kg, 72 hr post administration
Protocol: as §1

mice = assay: In vivo safety analysis of mRNA-LNPs (serum liver enzymes); conditions: mRNA-LNPs IV; serum after 2 hr and 24 hr; compared to untreated mice
Protocol: After 2 hr and 24 hr blood was collected and serum samples were analyzed for levels of the liver enzymes alkaline phosphatase (Alk Phos), serum glutamic-oxaloacetic transaminase (SGOT) or serum glutamic pyruvic transaminase (SGPT).
Safety is an important limitation for clinical development of LNPs. Therefore, mRNA-LNPs system made of DSL2-50 and DSL1-3 lipids were tested and evaluated for the toxicity in mice.

[4] = Stability of mRNA-LNPs stored at 2-8° C. (size, PDI); type: physicochemical
luciferase expression [5] = assay: Luciferase expression in mouse organs after storage of mRNA-LNPs (IVIS); type: in vivo, mice; conditions: mLuc LNPs stored 210 days at 2-8° C.
[6] = system: Luciferase and mCherry expression; assay: Delivery of two types of mRNA encapsulated in a single LNP (IVIS of livers); type: in vivo; conditions: mice livers; compared to SM102-LNPs
SARS-CoV-2 = conditions: IM day 0 and booster day 21, serum 3 weeks after booster; BALB/c and C57BL6 mice
Protocol: To evaluate the efficiency of our LNP system for vaccine delivery, mRNA against human Fc conjugated RBD (RBD-hFc mRNA) was chosen. LNPs encapsulated RBD-mRNA administered IM in to BALB/c mice (FIG. 19) and C57BL6 mice (FIG. 20) on day ‘0’ and a booster dose on day ‘21’. Serum was collected on day ‘21’ (pre boost) and 3 weeks after the booster dose (post boost) and analyzed for humoral response. […] The cellular response (SARS-CoV-2 specific T-cell response) was measured by ELISPOT assay for IFN-γ response.

tdTomato expression = assay: Biodistribution of DSL1-2 LNPs compared to Dlin-MC3-DMA LNPs (IVIS of spleen and liver); type: in vivo, Ai9 mice; conditions: mCRE-LNPs IV 0.5 mg/kg, 72 hr post administration
Protocol: Ai9 mice that express robust tdTomato fluorescence following cre-mediated recombination were injected intravenously with either Dlin-MC3-DMA or DSL1-2 mCRE-LNPs at 0.5 mg/kg dose. Mice were sacrificed 72 hr post administration followed by spleen and liver isolation and analyzed by IVIS for tdTomato expression.

[7] = mRNA LNPs: ionizable lipid, DSPC, Cholesterol, DMG-PEG 30:18:49.5:2.5 mole ratio

Row | SMILES | PDI (polydispersity index) [1, 7] | Z-ave (hydrodynamic diameter) [1, 7] | Zeta (zeta potential) [1, 7] | bio-distribution of LNPs (luciferase expression by IVIS) (luciferase expression [2]) | further results
1 | CCCCC/C=C\C/C=C\CCCCCCCCN(CCO)CCCCCCCCCCOC(=O)CCCCCCCCCN(CCO)CCCCCCCC/C=C\C/C=C\CCCCC [DSL1-1] | 0.23 | 187.3 nm·days | −6.37 mV | distributed to both liver and spleen | uptake by CD11c positive splenic dendritic cells (tdTomato expression) [3]: ~3%; peritoneal macrophages expressing tdTomato (peritoneal macrophages): ~60%
2 | CCCCC/C=C\C/C=C\CCCCCCCCN(CCO)CCCCCCCCCCOC(=O)CCCCCCCCCN(CCO)CCCCCCCCCCCC [DSL1-2] | 0.17 | 197.2 nm·days | −7.52 mV | – | uptake by CD11c positive splenic dendritic cells (tdTomato expression) [3]: ~12%; peritoneal macrophages expressing tdTomato (peritoneal macrophages): about 90%
3 | CCCCC/C=C\C/C=C\CCCCCCCCN(CCO)CCCCCCCCCCCOC(=O)CCCCCCCCCN(O)CCCCCCCCCCCC [DSL1-3] | 0.17 | 164.8 nm·days | −3.90 mV | preferentially taken up by spleen | LNP distribution and expression, 1.5 mol % vs 2.5 mol % PEG (luciferase expression [2]; mLUC-LNPs IV, two formulations compared): no significant different observed; uptake by CD11c positive splenic dendritic cells (tdTomato expression) [3]: ~18%; peritoneal macrophages expressing tdTomato (peritoneal macrophages): ~20%; toxicity (levels of liver enzymes Alk Phos, SGOT, SGPT) (mice): not toxic
4 | CCCCCCCCCCCCN(CCO)CCCCCCCCCCOC(=O)CCCCCCCCCN(CCO)CCCCCCCCCCCC [DSL1-4] | 0.13 | 188.7 nm·days | −1.43 mV | preferentially taken up by spleen | PDI ([1]; LNPs with DOPE as co-lipid): 0.1; Z-ave (hydrodynamic diameter) ([1]; LNPs with DOPE as co-lipid): 92.3 nm·days; PDI ([1]; LNPs with DSPC as co-lipid): 0.15; Z-ave (hydrodynamic diameter) ([1]; LNPs with DSPC as co-lipid): 190.9 nm·days; luciferase activity of LNPs with DOPE as co-lipid compared to DSPC containing LNPs (luciferase expression [2]; IVIS): loses its luciferase activity
5 | CCCCCCCCCCCCN(CCO)CCCCCCCCCC(=O)OCCOC(=O)CCCCCCCCCN(CCO)CCCCCCCCCCCC [DSL1-5] | – | – | – | preferentially taken up by spleen | bio-distribution on increasing ionizable lipid mole ratio (40% vs 30%) (luciferase expression [2]): altering the bio-distribution from the spleen to the liver
6 | CCCCC/C=C\C/C=C\CCCCCCCCN(CCO)CCCCCCCCCC(=O)ON(CCCCCCCCCCCC)CCCCCCCCCCCC [DSL2-1] | 0.24 | 49.2 nm·days | −6.97 mV | mostly taken-up by the liver | –
7 | CCCCCCCCCCCCN(CCO)CCCCCCCCCC(=O)ON(CCCCCCCCCCCC)CCCCCCCCCCCC [DSL2-2] | 0.23 | 50.8 nm·days | −5.31 mV | mostly taken-up by the liver | Z-ave (hydrodynamic diameter) ([1]; LNPs with DOPE as co-lipid): 72.5 nm·days and 88.5 nm·days; Z-ave (hydrodynamic diameter) ([1]; LNPs with DSPC as co-lipid): 50.8 nm·days and 80.3 nm·days; luciferase activity of LNPs with DOPE as co-lipid compared to DSPC containing LNPs (luciferase expression [2]; IVIS): enhanced luciferase activity observed in the liver
8 | CCCCCCN(CCCCCC)OC(=O)CCCCCCCCCN(CCO)CCCCCCCCCC(=O)ON(CCCCCC)CCCCCC [DSL2-49] | 0.07 | 63.9 nm·days | −5.65 mV | – | –
9 | CCCCCCN(CCCCCC)CCOC(=O)CCCCCCCCCN(CCO)CCCCCCCCCC(=O)OCCN(CCCCCC)CCCCCC [DSL2-50] | 0.04 | 80.3 nm·days | −2.68 mV | – | bio-distribution on increasing ionizable lipid mole ratio (40% vs 30%) (luciferase expression [2]): no significant changes in bio-distribution; luciferase activity of LNPs with DOPE as co-lipid compared to DSPC containing LNPs (luciferase expression [2]; IVIS): enhanced luciferase activity observed in the liver; LNP bio-distribution, intramuscular (IM) administration (luciferase expression [2]; mRNA-LNPs, IVIS): also reaching the liver apart from the injection site of the muscle; LNP bio-distribution, intravenous (IV) administration (luciferase expression [2]; mRNA-LNPs, IVIS): distributing to the liver; time over which LNPs are stable ([4]; mCherry LNPs stored at 2-8° C.): ≥ 3 months; size of the LNPs compared to freshly prepared LNPs ([4]; mCherry LNPs, after 3 months at 2-8° C.): slightly increased; time over which LNPs are stable ([4]; mLuc LNPs stored at 2-8° C.): ≥ 7 months; size and distribution of the LNPs compared to freshly prepared LNPs ([4]; mLuc LNPs, 210 days (7 months) at 2-8° C.): did not change; luciferase activity in the liver after storage (luciferase expression [5]): retain its luciferase activity in the liver; toxicity (levels of liver enzymes Alk Phos, SGOT, SGPT) (mice): not toxic; amount of Luciferase and mCherry expression [6]: high; post boost antibody response against SARS-CoV-2 (SARS-CoV-2): robust antibody response
10 | CCCCC/C=C\C/C=C\CCCCCCCCN(CCO)CCCCCCCCCCOC(=O)CCCCCCCCCN(CCO)CCCCCCCCCC(=O)OCCCCCCCCCCN(CCO)CCCCCCCC/C=C\C/C=C\CCCCC [DSL3c-1] | 0.45 | 261.9 nm·days | −2.68 mV | distributed to both liver and spleen | –
11 | CCCCCCCCCCCCN(CCCCCCCCCCCC)CC(=O)ON(CCCCCCCCCCCC)CCCCCCCCCCCC [DSL4-2] | 0.64 | 72.4 nm·days | −5.00 mV | no effect | –
12 | CCCCC/C=C\C/C=C\CCCCCCCCC(CCCCCCCC/C=C\C/C=C\CCCCC)OC(=O)CCCN(C)C [Dlin-MC3-DMA] | – | – | – | – | organ of accumulation (tdTomato expression, IVIS) (tdTomato expression): accumulated in the liver
